{"source": "patent US20180071317A1", "about": "“USE OF AGENTS THAT ALTER THE PERITUMORAL ENVIRONMENT FOR THE TREATMENT OF CANCER” (SERVICIO ANDALUZ DE SALUD, priority 2011, published 2018)", "key": {"[1]": {"system": "tumor cells from primary human tumors (PI3 Kinase pathway)", "test": "Proliferation of primary human tumor cells (AKT modified or unchanged) alone or with macrophages", "type": "cell-based", "details": "antagonist 1 μM"}, "[2]": {"system": "tumor cells from primary human tumors (PI3 Kinase pathway)", "test": "Proliferation of primary human tumor cells (AKT modified or unchanged) alone or with stromal fibroblasts", "type": "cell-based", "details": "antagonist 1 μM"}, "[3]": {"system": "tumor cells from primary human tumors (MAP Kinase pathway)", "test": "Proliferation of primary human tumor cells (ERK modified or unchanged) alone or with stromal fibroblasts", "type": "cell-based", "details": "antagonist 1 μM"}, "[4]": {"system": "tumor cells from primary human tumors (MAP Kinase pathway)", "test": "Proliferation of primary human tumor cells (ERK modified or unchanged) alone or with macrophages", "type": "cell-based", "details": "antagonist 1 μM"}, "[5]": {"system": "primary human tumor cells", "test": "Proliferation of primary human tumor cells with low dose Aprepitant alone or with fibroblasts, leukocytes or macrophages", "details": "low dose (5 nanomolar)"}, "[6]": {"system": "human primary macrophages (PHM)", "test": "IL-8 Western blotting in human primary macrophages", "type": "cell-based", "details": "cultured in the presence of SP", "source_text": "Further cells that make up the microenvironment are peritumoral macrophage lineage cells that are of great importance in the development of the microenvironment around the tumor, by interacting with tumor cells to stimulate their growth and spread by secretion into the medium of different markers that promote the expansion and growth of tumors. In this sense the next step was to analyze the effect exerted by the treatment with non-peptide NK1 antagonists in human primary macrophages (PHM) obtained and purified from pleural effusion samples obtained from men with chronic age range between 45 and 55 years. Briefly, the pleural fluid from chronic (rich in macrophages) was centrifuged. […]\nSimilar results were obtained in the case of TNF-α, respect to its expression to those obtained using the other markers analyzed: EGF, MMP-9 and VEGF, i.e., the treatment with the non-peptide receptor NK1 inhibited the TNF-α marker expression. Also the presence of IL-8 were determined by Western blotting, as explained in Example 1, using […] primary antibody (AB1427, Merck-Millipore)."}, "[7]": {"system": "cell line C-12210 (microvascular endothelial cells)", "test": "Proliferation of C-12210 endothelial cell cultures (MTS);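 note: MTS colorimetric read-out in culture wells, absorbance at 492 nm with 690 nm reference, MTS added 90 min before reading, blank without cells, compared with untreated control cells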", "type": "cell-based, human"}, "[8]": {"details": "irrespective of MAP Kinases pathway integrity"}}}
{"smiles": "C[C@@H](O[C@H]1OCCN(Cc2n[nH]c(=O)[nH]2)[C@H]1c1ccc(F)cc1)c1cc(C(F)(F)F)cc(C(F)(F)F)c1", "note": "[Aprepitant]", "values": [{"measurement": "growth of primary tumor cells cultured alone (in words)", "setting": "[1]; AKT modified or unchanged", "result": "only inhibits the growth of cells in which said receptor acts through the PI3 Kinase pathway"}, {"measurement": "proliferation of primary tumor cells co-cultured with macrophages (in words)", "setting": "[1]; irrespective of PI3 Kinase pathway integrity", "result": "produces a proliferation of inhibition of tumor cells"}, {"measurement": "growth of primary tumor cells cultured alone (in words)", "setting": "[2]; AKT modified or unchanged", "result": "only inhibits the growth of cells in which said receptor acts through the PI3 Kinase pathway"}, {"measurement": "proliferation of primary tumor cells co-cultured with stromal fibroblasts (in words)", "setting": "[2]; irrespective of PI3 kinases pathway integrity", "result": "produces a proliferation of inhibition of tumor cells"}, {"measurement": "growth of primary tumor cells cultured alone (in words)", "setting": "[3]; ERK modified or unchanged", "result": "only inhibits the growth of cells in which the receptor acts NK1 through the MAP Kinases pathway"}, {"measurement": "proliferation of primary tumor cells co-cultured with stromal fibroblasts (in words)", "setting": "[3]; [8]", "result": "produces a proliferation of inhibition of tumor cells"}, {"measurement": "growth of primary tumor cells cultured alone (in words)", "setting": "[4]; ERK modified or unchanged", "result": "only inhibits the growth of cells in which said receptor acts through the MAP Kinases pathway"}, {"measurement": "proliferation of primary tumor cells co-cultured with macrophages (in words)", "setting": "[4]; [8]", "result": "produces a proliferation of inhibition of tumor cells"}, {"measurement": "growth of primary tumor cells cultured alone (in words)", "setting": "[5]", "result": "does not inhibit the growth of tumor cells at low dose"}, {"measurement": "proliferation of primary tumor cells co-cultured with stromal fibroblasts and immune/inflammatory cells (in words)", "setting": "[5]", "result": "produces a proliferation of inhibition of tumor cells"}]}
{"smiles": "CSCC[C@H](NC(=O)[C@H](CC(C)C)NC(=O)CNC(=O)[C@H](Cc1ccccc1)NC(=O)[C@H](Cc1ccccc1)NC(=O)[C@H](CCC(N)=O)NC(=O)[C@H](CCC(N)=O)NC(=O)[C@@H]1CCCN1C(=O)[C@H](CCCCN)NC(=O)[C@@H]1CCCN1C(=O)[C@@H](N)CCCNC(=N)N)C(N)=O", "note": "[SP]", "values": [{"measurement": "IL-8 expression in macrophages, Western blotting (in words)", "setting": "[6]", "result": "showed expression of this marker"}, {"measurement": "proliferation, percentage of control ± SD", "setting": "[7]; SP 10 nM, exposure 0 h", "result": "102.2 ± 1", "unit": "%"}, {"measurement": "proliferation, percentage of control ± SD", "setting": "[7]; SP 10 nM, exposure 24 h", "result": "119.1 ± 1.8", "unit": "%"}, {"measurement": "proliferation, percentage of control ± SD", "setting": "[7]; SP 10 nM, exposure 48 h", "result": "139.3 ± 3.1", "unit": "%"}, {"measurement": "proliferation, percentage of control ± SD", "setting": "[7]; SP 10 nM, exposure 72 h", "result": "134.3 ± 2.8", "unit": "%"}, {"measurement": "proliferation, percentage of control ± SD", "setting": "[7]; SP 100 nM, exposure 0 h", "result": "109.5 ± 2.9", "unit": "%"}, {"measurement": "proliferation, percentage of control ± SD", "setting": "[7]; SP 100 nM, exposure 24 h", "result": "17 ± 2.7", "unit": "%"}, {"measurement": "proliferation, percentage of control ± SD", "setting": "[7]; SP 100 nM, exposure 48 h", "result": "21 ± 2.6", "unit": "%"}, {"measurement": "proliferation, percentage of control ± SD", "setting": "[7]; SP 100 nM, exposure 72 h", "result": "32.4 ± 3.3", "unit": "%"}, {"measurement": "proliferation, percentage of control ± SD", "setting": "[7]; SP 500 nM, exposure 0 h", "result": "128.9 ± 2.7", "unit": "%"}, {"measurement": "proliferation, percentage of control ± SD", "setting": "[7]; SP 500 nM, exposure 24 h", "result": "137 ± 3.8", "unit": "%"}, {"measurement": "proliferation, percentage of control ± SD", "setting": "[7]; SP 500 nM, exposure 48 h", "result": "146 ± 4.7", "unit": "%"}, {"measurement": "proliferation, percentage of control ± SD", "setting": "[7]; SP 500 nM, exposure 72 h", "result": "158.5 ± 4.6", "unit": "%"}, {"measurement": "proliferation, percentage of control ± SD", "setting": "[7]; SP 1 μM, exposure 0 h", "result": "175.3 ± 5.2", "unit": "%"}, {"measurement": "proliferation, percentage of control ± SD", "setting": "[7]; SP 1 μM, exposure 24 h", "result": "186 ± 6.3", "unit": "%"}, {"measurement": "proliferation, percentage of control ± SD", "setting": "[7]; SP 1 μM, exposure 48 h", "result": "194.4 ± 6.5", "unit": "%"}, {"measurement": "proliferation, percentage of control ± SD", "setting": "[7]; SP 1 μM, exposure 72 h", "result": "199 ± 5.5", "unit": "%"}, {"measurement": "proliferation, percentage of control ± SD", "setting": "[7]; SP 50 μM, exposure 0 h", "result": "218 ± 3.5", "unit": "%"}, {"measurement": "proliferation, percentage of control ± SD", "setting": "[7]; SP 50 μM, exposure 24 h", "result": "242 ± 6.7", "unit": "%"}, {"measurement": "proliferation, percentage of control ± SD", "setting": "[7]; SP 50 μM, exposure 48 h", "result": "247 ± 6.5", "unit": "%"}, {"measurement": "proliferation, percentage of control ± SD", "setting": "[7]; SP 50 μM, exposure 72 h", "result": "259.4 ± 4.1", "unit": "%"}, {"measurement": "proliferation, percentage of control ± SD", "setting": "[7]; SP 100 μM, exposure 0 h", "result": "236.4 ± 5.6", "unit": "%"}, {"measurement": "proliferation, percentage of control ± SD", "setting": "[7]; SP 100 μM, exposure 24 h", "result": "258 ± 4.5", "unit": "%"}, {"measurement": "proliferation, percentage of control ± SD", "setting": "[7]; SP 100 μM, exposure 48 h", "result": "259.5 ± 4.6", "unit": "%"}, {"measurement": "proliferation, percentage of control ± SD", "setting": "[7]; SP 100 μM, exposure 72 h", "result": "266.9 ± 6.8", "unit": "%"}, {"measurement": "effect on growth/proliferation of C-12210 cells (in words)", "setting": "[7]; increasing concentrations", "result": "stimulating effect on the growth of human endothelial cells"}]}
